In PubChem BioAssay AID2060885 (Molecular Pharmacology Branch, DTP, NCI, 2025):

Test system: NCI-H23 complex spheroids with HUVEC/MSC, viability
Assay: Anticancer human tumor NCI-H23 cell line growth inhibition [RAS];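 also: spheroids exposed to compound for 7 days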;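 as to viability, T/C: 100% = DMSO vehicle control viability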
Settings: for IC50: curve of first compound; for viability, T/C: stronger effect = lower value
In short: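 Multi-cell-type spheroids: tumor cells plus HUVEC endothelial cells and mesenchymal stem cells. RAS-pathway inhibitors were combined with targeted agents, each dosed in half-log steps down from clinical Cmax, or from 10 microM when Cmax was unknown.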

CCN1CCN(Cc2ccc(Nc3ncc(F)c(-c4cc(F)c5nc(C)n(C(C)C)c5c4)n3)nc2)CC1 + C=CC(=O)N1CCN(c2nc(OCC3CCCN3C)nc3c(F)c(-c4nc(N)cc(C)c4C(F)(F)F)c(Cl)cc23)C(C)C1
IC50 (second compound 0.00316 µM): 15.3 nM | IC50 (second compound 0.01 µM): 3.55 nM | IC50 (second compound 0.0316 µM): < 3.16 nM | IC50 (second compound 0.1 µM): < 3.16 nM | IC50 (second compound 0.316 µM): < 3.16 nM | IC50 (second compound 1 µM): < 3.16 nM | viability, T/C (second compound 0.00316 µM, first compound 0.00316 µM): 55.6% | viability, T/C (second compound 0.00316 µM, first compound 0.01 µM): 58.2% | viability, T/C (second compound 0.00316 µM, first compound 0.0316 µM): 38.2% | viability, T/C (second compound 0.00316 µM, first compound 0.1 µM): 26.9% | viability, T/C (second compound 0.00316 µM, first compound 0.316 µM): 26.1% | viability, T/C (second compound 0.00316 µM, first compound 1 µM): 23.9% | viability, T/C (second compound 0.01 µM, first compound 0.00316 µM): 49.9% | viability, T/C (second compound 0.01 µM, first compound 0.01 µM): 46.7% | viability, T/C (second compound 0.01 µM, first compound 0.0316 µM): 30.1% | viability, T/C (second compound 0.01 µM, first compound 0.1 µM): 23.6% | viability, T/C (second compound 0.01 µM, first compound 0.316 µM): 17.4% | viability, T/C (second compound 0.01 µM, first compound 1 µM): 18.6% | viability, T/C (second compound 0.0316 µM, first compound 0.00316 µM): 44.4% | viability, T/C (second compound 0.0316 µM, first compound 0.01 µM): 37.3% | viability, T/C (second compound 0.0316 µM, first compound 0.0316 µM): 24.1% | viability, T/C (second compound 0.0316 µM, first compound 0.1 µM): 21.8% | viability, T/C (second compound 0.0316 µM, first compound 0.316 µM): 17.2% | viability, T/C (second compound 0.0316 µM, first compound 1 µM): 20.1% | viability, T/C (second compound 0.1 µM, first compound 0.00316 µM): 36.4% | viability, T/C (second compound 0.1 µM, first compound 0.01 µM): 29.3% | viability, T/C (second compound 0.1 µM, first compound 0.0316 µM): 23.2% | viability, T/C (second compound 0.1 µM, first compound 0.1 µM): 19.4% | viability, T/C (second compound 0.1 µM, first compound 0.316 µM): 19.4% | viability, T/C (second compound 0.1 µM, first compound 1 µM): 18.3% | viability, T/C (second compound 0.316 µM, first compound 0.00316 µM): 34.3% | viability, T/C (second compound 0.316 µM, first compound 0.01 µM): 31.7% | viability, T/C (second compound 0.316 µM, first compound 0.0316 µM): 21.9% | viability, T/C (second compound 0.316 µM, first compound 0.1 µM): 20.5% | viability, T/C (second compound 0.316 µM, first compound 0.316 µM): 16.6% | viability, T/C (second compound 0.316 µM, first compound 1 µM): 17.2% | viability, T/C (second compound 1 µM, first compound 0.00316 µM): 28.7% | viability, T/C (second compound 1 µM, first compound 0.01 µM): 33.8% | viability, T/C (second compound 1 µM, first compound 0.0316 µM): 26.2% | viability, T/C (second compound 1 µM, first compound 0.1 µM): 20.1% | viability, T/C (second compound 1 µM, first compound 0.316 µM): 17.8% | viability, T/C (second compound 1 µM, first compound 1 µM): 17.1%
